Patent US11780840B2 (Incyte Corporation, priority 2020, dated 2023)

Legend:
[1] = target: T1, pseudo-kinase domain (JH2, amino-acids 536-812 with 3 surface mutations W659A, W777A, F794H) of human Wild Type JAK2 (Homo sapiens, UniProt O60674, F794H/W659A/W777A); assay: JAK2 LanthaScreen JH2-WT Binding Assay; settings: JAK2 JH2-WT (0.145 nM), 50 nM Fluorescent JAK2-JH2 Tracer, 1 hour at 25° C.; read-out: JH2 BIND WT
T1 construct: pseudo-kinase domain (JH2, amino-acids 536-812 with 3 surface mutations W659A, W777A, F794H); His (C); Avi (biotinylated) (C); purchased BPS Bioscience 79463; host or cells: baculovirus expression system
T1 sequence (O60674 536-812 W659A/W777A/F794H): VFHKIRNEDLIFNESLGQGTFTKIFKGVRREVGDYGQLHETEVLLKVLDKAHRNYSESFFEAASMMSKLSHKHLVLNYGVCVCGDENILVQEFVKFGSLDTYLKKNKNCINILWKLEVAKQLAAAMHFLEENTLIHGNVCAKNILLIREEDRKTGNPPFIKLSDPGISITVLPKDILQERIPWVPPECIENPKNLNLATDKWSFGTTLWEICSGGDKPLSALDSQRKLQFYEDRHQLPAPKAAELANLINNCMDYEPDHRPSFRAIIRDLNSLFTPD
Method: Example B. JAK2 LanthaScreen JH2-WT Binding Assay
(§1) JAK2 JH2-WT binding assay utilizes pseudo-kinase domain (JH2, amino-acids 536-812 with 3 surface mutations W659A, W777A, F794H) of human Wild Type JAK2 expressed as C-terminal His-Avi-tagged, biotinylated protein in a baculovirus expression system (BPS Bioscience, Catalog #79463). The assay was conducted in black 384-well polystyrene plates in a final reaction volume of 20 μL. JAK2 JH2-WT (0.145 nM) was incubated with compounds (100 nL serially diluted in DMSO) in the presence of 50 nM Fluorescent JAK2-JH2 Tracer (MedChem Express Catalog #HY-102055) and 0.25 nM Streptavidin-Tb cryptate (Cisbio Part #610SATLB) in assay buffer (50 mM Tris, pH=7.5, 10 mM MgCl2, 0.01% Brij-35, 0.1% BSA, 1 mM EGTA, 5% Glycerol and 5 mM DTT). Non-specific binding was accessed in the presence of 2 mM ATP. After incubation for 1 hour at 25° C., LanthaScreen signals were read on a PHERAstar FS plate reader (BMG LABTECH). Data was analyzed with IDBS XLfit and GraphPad Prism 5.0 software using a four parameter dose response curve to determine IC50 for each compound.

[2] = target: T2, pseudo-kinase domain (JH2, amino-acids 536-812 with 3 surface mutations W659A, W777A, F794H) of human V617F mutant JAK2 (Homo sapiens, UniProt O60674, F794H/V617F/W659A/W777A); assay: JAK2 LanthaScreen JH2-V617F Binding Assay; settings: JAK2 JH2-V617F (0.26 nM), 50 nM Fluorescent JAK2-JH2 Tracer, 1 hour at 25° C.; read-out: JH2 BIND V617F
T2 construct: pseudo-kinase domain (JH2, amino-acids 536-812 with 3 surface mutations W659A, W777A, F794H); His (C); Avi (biotinylated) (C); purchased BPS Bioscience 79498; host or cells: baculovirus expression system
T2 sequence (O60674 536-812 V617F/W659A/W777A/F794H): as the sequence (O60674 536-812 W659A/W777A/F794H) above, with V82F counted along it
Method: Example C. JAK2 LanthaScreen JH2-V617F Binding Assay
as §1, with “JH2-V617F” for “JH2-WT”, “V617F mutant” for “Wild Type”, “#79498).” for “#79463).”, “JH2-V617F (0.26” for “JH2-WT (0.145”

[3] = target: T3, catalytic domain (JH1, amino acids 826-1132) of human JAK2 (Homo sapiens, UniProt O60674); assay: JAK2 LanthaScreen JH1 Binding Assay; settings: JAK2 JH1 (1.5 nM), 50 nM fluorescent JAK2-JH1 tracer, 2 hours at 25° C.; read-out: JH1 BIND
T3 construct: catalytic domain (JH1, amino acids 826-1132) of human JAK2; FLAG (N); purchased Carna Biosciences 08-445-20N; host or cells: baculovirus expression system
T3 sequence (O60674 826-1132): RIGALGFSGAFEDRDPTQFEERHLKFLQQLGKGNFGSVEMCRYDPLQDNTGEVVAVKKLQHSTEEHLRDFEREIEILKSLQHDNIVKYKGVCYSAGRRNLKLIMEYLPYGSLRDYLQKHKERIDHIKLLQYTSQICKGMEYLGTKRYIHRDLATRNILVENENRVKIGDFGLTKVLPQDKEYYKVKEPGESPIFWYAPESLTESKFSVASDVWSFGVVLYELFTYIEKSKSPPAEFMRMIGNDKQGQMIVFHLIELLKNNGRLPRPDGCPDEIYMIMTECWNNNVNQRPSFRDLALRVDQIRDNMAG
Method: Example A. JAK2 LanthaScreen JH1 Binding Assay
JAK2 JH1 binding assay utilizes catalytic domain (JH1, amino acids 826-1132) of human JAK2 expressed as N-terminal FLAG-tagged, biotinylated protein in a baculovirus expression system (Carna Biosciences, Product #08-445-20N). The assay was conducted in black 384-well polystyrene plates in a final reaction volume of 20 μL. JAK2 JH1 (1.5 nM) was incubated with compounds (100 nL serially diluted in DMSO) in the presence of 50 nM fluorescent JAK2-JH1 tracer and 0.5 nM Streptavidin-Tb cryptate (Cisbio Part #610SATLB) in assay buffer (50 mM Tris, pH=7.5, 10 mM MgCl2, 0.01% Brij-35, 0.1% BSA, 1 mM EGTA, 5% Glycerol and 5 mM DTT). Non-specific binding was accessed in the presence of 2 mM ATP. After incubation for 2 hours at 25° C., LanthaScreen signals were read on a PHERAstar FS plate reader (BMG LABTECH). Data was analyzed with IDBS XLfit and GraphPad Prism 5.0 software using a four parameter dose response curve to determine IC50 for each compound.

Row | SMILES | IC50 [1] | IC50 [2] | IC50 [3]
1 | Cn1c(=O)n(C2CCCC2)c2c3c(-c4ccc(C5(C#N)CC5)cc4)c(-c4cnn(CS(C)(=O)=O)c4)[nH]c3ncc21 [Example 31, 1-(4-(1-Cyclopentyl-3-methyl-7-(1-((methylsulfonyl)methyl)-1H-pyrazol-4-yl)-2-oxo-1,2,3,6-tetrahydroimidazo [4,5-d]pyrrolo[2,3-b]pyridin-8-yl)phenyl)cyclo-propane-1-carbonitrile] | ≤ 10 nM | ≤ 10 nM | 100 to 500 nM
2 | COC1CC=C(c2c(-c3ccc(CN4CCC(S(C)(=O)=O)CC4)cc3)[nH]c3ncc4c(c23)n(C2CCCC2)c(=O)n4C)CC1 (stereo not drawn) [Example 32, 1-Cyclopentyl-8-(4-methoxycyclohex-1-en-1-yl)-3-methyl-7-(4-((4-(methylsulfonyl)piperidin-1-yl)methyl)phenyl)-3,6-dihydroimidazo[4,5-d]pyrrolo[2,3-b] pyridin-2(1H)-one] | ≤ 10 nM | ≤ 10 nM | 10 to 100 nM
3 | Cn1c(=O)n(C2CCCC2)c2c3c(C4=CCOCC4)c(-c4ccc(CN5CCC(S(C)(=O)=O)CC5)cc4)[nH]c3ncc21 [Example 33, 1-Cyclopentyl-8-(3,6-dihydro-2H-pyran-4-yl)-3-methyl-7-(4-((4-(methylsulfonyl)piperidin-1-yl)methyl)phenyl)-3,6-dihydroimidazo[4,5-d]pyrrolo[2,3-b] pyridin-2(1H)-one] | ≤ 10 nM | ≤ 10 nM | 10 to 100 nM
4 | Cn1c(=O)n(C)c2c3c(C4CC4)c(-c4ccc(CN5CCC(S(C)(=O)=O)CC5)cc4)[nH]c3ncc21 [Example 34] | 500 to 1000 nM | > 1000 nM | 500 to 1000 nM
5 | COc1ccc(-c2c(-c3ccc(CN4CCC(S(C)(=O)=O)CC4)cc3)[nH]c3ncc4c(c23)n(C)c(=O)n4C)cn1 [Example 35, 8-(6-Methoxypyridin-3-yl)-1,3-dimethyl-7-(4-((4-(methylsulfonyl)piperidin-1-yl)methyl)phenyl)-3,6-dihydroimidazo[4,5-d]pyrrolo[2,3-b]pyridin-2(1H)-one] | 100 to 500 nM | 100 to 500 nM | > 1000 nM
6 | CC(C)n1c(=O)n(C)c2cnc3[nH]c(-c4cnn(Cc5ccncc5)c4)c(-c4ccc(C#N)cc4)c3c21 [Example 36, 4-(1-Isopropyl-3-methyl-2-oxo-7-(1-(pyridin-4-ylmethyl)-1H-pyrazol-4-yl)-1,2,3,6-tetrahydroimidazo [4,5-d]pyrrolo[2,3-b]pyridin-8-yl)benzonitrile] | ≤ 10 nM | ≤ 10 nM | 100 to 500 nM
7 | CC(=O)N1CCN(c2ccc(-c3[nH]c4ncc5c(c4c3-c3ccc(C#N)cc3)n(C(C)C)c(=O)n5C)cc2)CC1 [Example 37, 4-(7-(4-(4-Acetylpiperazin-1-yl)phenyl)-1-isopropyl-3-methyl-2-oxo-1,2,3,6-tetrahydroimidazo [4,5-d]pyrrolo[2,3-b]pyridin-8-yl) benzonitrile] | ≤ 10 nM | ≤ 10 nM | > 1000 nM
8 | CC(C)n1c(=O)n(C)c2cnc3[nH]c(C4=CCOCC4)c(-c4ccc(C#N)cc4)c3c21 [Example 38, 4-(7-(3,6-Dihydro-2H-pyran-4-yl)-1-isopropyl-3-methyl-2-oxo-1,2,3,6-tetrahydroimidazo [4,5-d]pyrrolo[2,3-b]pyridin-8-yl)benzonitrile] | 10 to 100 nM | 10 to 100 nM | > 1000 nM
9 | CC(C)n1c(=O)n(C)c2cnc3[nH]c(C4CC4)c(-c4ccc(C#N)cc4)c3c21 [Example 39] | 10 to 100 nM | 10 to 100 nM | > 1000 nM
10 | Cn1c(=O)n(C)c2c3c(-c4ccccc4)c(-c4cccnc4)[nH]c3ncc21 [Example 40, 1,3-Dimethyl-8-phenyl-7-(pyridin-3-yl)-3,6-dihydroimidazo[4,5-d]pyrrolo[2,3-b]pyridin-2(1H)-one] | 500 to 1000 nM | > 1000 nM | > 1000 nM
11 | Cn1c(=O)n(C)c2c3c(-c4ccccc4)c(C4CCNCC4)[nH]c3ncc21 [Example 41, 1,3-Dimethyl-8-phenyl-7-(piperidin-4-yl)-3,6-dihydroimidazo[4,5-d]pyrrolo[2,3-b]pyridin-2(1H)-one] | > 1000 nM | > 1000 nM | > 1000 nM
12 | Cn1c(=O)n(C)c2c3c(-c4ccccc4)c(CCO)[nH]c3ncc21 [Example 42, 7-(2-Hydroxyethyl)-1,3-dimethyl-8-phenyl-3,6-dihydroimidazo[4,5-d]pyrrolo[2,3-b]pyridin-2(1H)-one] | > 1000 nM | > 1000 nM | > 1000 nM
13 | CC(C)C(=O)c1[nH]c2ncc3c(c2c1-c1ccccc1)n(C)c(=O)n3C [Example 43, 7-Isobutyryl-1,3-dimethyl-8-phenyl-3,6-dihydroimidazo [4,5-d]pyrrolo[2,3-b]pyridin-2(1H)-one] | > 1000 nM | > 1000 nM | > 1000 nM
14 | CC(C)n1c(=O)n(C)c2cnc3[nH]c(-c4cnn(CS(C)(=O)=O)c4)c(-c4ccccc4)c3c21 [Example 44] | ≤ 10 nM | ≤ 10 nM | 100 to 500 nM
15 | Cn1c(=O)n(C2CC3CCC2C3)c2c3c(-c4ccccc4)c(-c4cnn(CS(C)(=O)=O)c4)[nH]c3ncc21 (stereo not drawn) [Example 45, 1-(Bicyclo[2.2.1]heptan-2-yl)-3-methyl-7-(1-((methylsulfonyl)methyl)-1H-pyrazol-4-yl)-8-phenyl-3,6-dihydroimidazo[4,5-d]pyrrolo[2,3-b]pyridin-2(1H)-one] | ≤ 10 nM | 10 to 100 nM | 10 to 100 nM
16 | Cn1c(=O)n(C2CCOCC2)c2c3c(-c4ccccc4)c(-c4ccc(CN5CCC(S(C)(=O)=O)CC5)cc4)[nH]c3ncc21 [Example 46, 3-Methyl-7-(4-((4-(methylsulfonyl)piperidin-1-yl)methyl)phenyl)-8-phenyl-1-(tetrahydro-2H-pyran-4-yl)-3,6-dihydroimidazo[4,5-d]pyrrolo[2,3-b] pyridin-2(1H)-one] | ≤ 10 nM | ≤ 10 nM | 500 to 1000 nM
17 | Cn1ncc2cc(-c3c(-c4cnn(CC(C)(C)O)c4)[nH]c4ncc5c(c34)n(C3CCCC3)c(=O)n5C)ccc21 [Example 47, 1-Cyclopentyl-7-(1-(2-hydroxy-2-methylpropyl)-1H-pyrazol-4-yl)-3-methyl-8-(1-methyl-1H-indazol-5-yl)-3,6-dihydroimidazo[4,5-d]pyrrolo[2,3-b]pyridin-2(1H)-one] | ≤ 10 nM | ≤ 10 nM | 100 to 500 nM
